In US10857119B2, “Composition containing monoacetyldiacylglycerol compound as active ingredient for inhibiting blood cancer or metastasis” (ENZYCHEM LIFESCIENCES CORPORATION, priority 2013, dated 2020):

Legend:
rat IL-4 = experiment: IL-4 secretion by ELISA in RBL-2H3 cells; format: cell-based; settings: 10 μg/Ml EC-18
Protocol: The cells were treated with 0.1 μg/Ml to 10 μg/Ml EC-18 for 1 hour and antigen was processed. After the incubation for 18 hours at 37° C., the cell was removed to obtain a supernatant. The quantification of rat IL-4 which was present in the cell culture medium of RBL-2H3 cells was made by carrying out enzyme-linked immunosorbent assay (ELISA) according to the protocol indicated by the manufacturer using commercially purchasable monoclonal antibody (mAb) (BD Biosciences).

[1] = GLP toxicity test; cited from earlier work

Compound: CCCCC/C=C\C/C=C\CCCCCCCC(=O)OC(COC(C)=O)COC(=O)CCCCCCCCCCCCCCC (centres unmarked) [EC-18, 1-palmitoyl-2-linoleoyl-3-acetylglycerol]
- inhibition at 10 µg/mL (rat IL-4): ≥ 60%
- toxicity [1]: no-toxicity
